Data from ChEMBL document CHEMBL1799925, “Inhibition of sphingosine 1-phosphate lyase for the treatment of rheumatoid arthritis: discovery of (E)-1-(4-((1R,2S,3R)-1,2,3,4-tetrahydroxybutyl)-1H-imidazol-2-yl)ethanone oxime (LX2931) and (1R,2S,3R)-1-(2-(isoxazol-3-yl)-1H-imidazol-4-yl)butane-1,2,3,4-tetraol (LX2932)” (J Med Chem, 2010).

How the values were obtained:
[1] = Cmax in healthy human at 1 mg/kg, po by LC/MS/MS analysis; format: ADME, organism-based; parameters: dose 1 mg/kg, route oral; conditions: in vivo
[2] = Bioavailability in 129/SvEvBrd X C57BL/6 F1 mouse determined from 1 mg/kg, iv and 10 mg/kg, po by LC/MS/MS analysis; format: ADME, organism-based; conditions: 129/SvEvBrd X C57BL/6 F1, mouse, in vivo
Homo sapiens [3] = assay: Immunomodulatory activity in arthritic patient assessed as decrease in peripheral lymphocytes at […], po administered as single dose after 48 hrs; format: functional; parameters: scale not given: the % may be the effect or the level left
[4] = Volume of distribution at steady state in 129/SvEvBrd X C57BL/6 F1 mouse at 1 mg/kg, iv by LC/MS/MS analysis; format: ADME, organism-based; parameters: dose 1 mg/kg, route intravenous; conditions: in vivo, read-out: Vdss
[5] = AUC (0 to infinity) in healthy human at 1 mg/kg, po by LC/MS/MS analysis; format: ADME, organism-based; parameters: time infinity, dose 1 mg/kg, route oral; conditions: plasma
[6] = AUC (0 to infinity) in 129/SvEvBrd X C57BL/6 F1 mouse at 10 mg/kg, po by LC/MS/MS analysis; format: ADME, organism-based, Plasma; parameters: time infinity, dose 10 mg/kg, route oral; conditions: 129/SvEvBrd X C57BL/6 F1, mouse, plasma
Rattus norvegicus [7] = assay: Increase in S1P level in Sprague-Dawley rat jejunum at 30 mg/kg, po administered daily for 3 days measured after 18 hrs […] relative to untreated control; format: functional
[8] = Clearance in Sprague-Dawley rat at 1 mg/kg, iv by LC/MS/MS analysis; format: ADME, organism-based; parameters: dose 1 mg/kg, route intravenous; conditions: in vivo
[9] = Bioavailability in cynomolgus monkey determined from 1 mg/kg, iv and 30 mg/kg, po by LC/MS/MS analysis; format: ADME, organism-based, Macaca fascicularis; conditions: in vivo
[10] = AUC (0 to infinity) in Beagle dog at 50 mg/kg, po by LC/MS/MS analysis; format: ADME, organism-based, Canis lupus familiaris; parameters: dose 50 mg/kg, route oral, time infinity; conditions: plasma
Homo sapiens [11] = assay: Toxicity in arthritic patient assessed as tolerability at […], po administered as single dose; format: organism-based; parameters: route oral; conditions: in vivo
[12] = Oral bioavailability in Sprague-Dawley rat determined from 1 mg/kg, iv and 10 mg/kg, po by LC/MS/MS analysis; format: ADME, organism-based; conditions: in vivo
Rattus norvegicus [13] = assay: Increase in S1P level in Sprague-Dawley rat spleen at 30 mg/kg, po administered daily for 3 days measured after 18 hrs […] relative to untreated control; format: functional
[14] = Cmax in Beagle dog at 50 mg/kg, po by LC/MS/MS analysis; format: ADME, organism-based, Canis lupus familiaris; parameters: dose 50 mg/kg, route oral; conditions: in vivo
[15] = Clearance in Beagle dog at 1 mg/kg, iv by LC/MS/MS analysis; format: ADME, organism-based, Canis lupus familiaris; parameters: dose 1 mg/kg, route intravenous; conditions: in vivo
Mus musculus [16] = assay: Antiarthritic activity in […] collagen-induced arthritic mouse assessed as decrease in circulating T cells at 100 mg/kg, po qd administered one day before collagen challenge; format: functional, T-cell; parameters: scale not given: the % may be the effect or the level left
[17] = Clearance in 129/SvEvBrd X C57BL/6 F1 mouse at 1 mg/kg, iv by LC/MS/MS analysis; format: ADME, organism-based; parameters: dose 1 mg/kg, route intravenous; conditions: in vivo
[18] = Tmax in healthy human at 1 mg/kg, po by LC/MS/MS analysis; format: ADME, organism-based; parameters: dose 1 mg/kg, route oral; conditions: in vivo
[19] = Cmax in 129/SvEvBrd X C57BL/6 F1 mouse at 10 mg/kg, po by LC/MS/MS analysis; format: ADME, organism-based; parameters: dose 10 mg/kg, route oral; conditions: in vivo
[20] = Cmax in cynomolgus monkey at 30 mg/kg, po by LC/MS/MS analysis; format: ADME, organism-based, Macaca fascicularis; parameters: dose 30 mg/kg, route oral; conditions: in vivo
Cynomolgus monkey [21] = assay: Cardiotoxicity in cynomolgus monkey assessed as increase in heart rate at 1000 mg/kg, po administered as single dose after 24 hrs by electrocardiogram analysis; format: toxicity, organism-based, Macaca fascicularis; parameters: dose 1000 mg/kg, route oral; conditions: in vivo
[22] = Tmax in Sprague-Dawley rat at 10 mg/kg, po by LC/MS/MS analysis; format: ADME, organism-based; parameters: dose 10 mg/kg, route oral; conditions: in vivo
[23] = Tmax in 129/SvEvBrd X C57BL/6 F1 mouse at 10 mg/kg, po by LC/MS/MS analysis; format: ADME, organism-based; parameters: dose 10 mg/kg, route oral; conditions: in vivo
[24] = Half life in 129/SvEvBrd X C57BL/6 F1 mouse at 10 mg/kg, po by LC/MS/MS analysis; format: ADME, organism-based; parameters: dose 10 mg/kg, route oral; conditions: in vivo
[25] = Tmax in Beagle dog at 50 mg/kg, po by LC/MS/MS analysis; format: ADME, organism-based, Canis lupus familiaris; parameters: dose 50 mg/kg, route oral; conditions: in vivo
[26] = Bioavailability in Beagle dog determined from 1 mg/kg, iv and 50 mg/kg, po by LC/MS/MS analysis; format: ADME, organism-based, Canis lupus familiaris; conditions: in vivo
[27] = Cmax in Sprague-Dawley rat at 10 mg/kg, po by LC/MS/MS analysis; format: ADME, organism-based; parameters: dose 10 mg/kg, route oral; conditions: in vivo
Rattus norvegicus [28] = assay: Increase in S1P level in Sprague-Dawley rat thymus at 30 mg/kg, po administered daily for 3 days measured after 18 hrs […] relative to untreated control; format: functional
Canis familiaris [29] = assay: Volume of distribution at steady state in Beagle dog at 50 mg/kg, po by LC/MS/MS analysis; format: ADME, organism-based, Canis lupus familiaris; parameters: dose 50 mg/kg, route oral; conditions: in vivo
[30] = AUC (0 to infinity) in Sprague-Dawley rat at 10 mg/kg, po by LC/MS/MS analysis; format: ADME, organism-based; parameters: time infinity, dose 10 mg/kg, route oral; conditions: plasma
[31] = Clearance in cynomolgus monkey at 1 mg/kg, iv by LC/MS/MS analysis; format: ADME, organism-based, Macaca fascicularis; parameters: dose 1 mg/kg, route intravenous; conditions: in vivo
Mus musculus [32] = assay: Immunomodulatory activity in 129/SvEvBrd X C57BL/6 F1 mouse assessed as decrease in peripheral blood lymphocyte count at 30 mg/kg, po measured after 18 hrs by complete blood count analysis relative to control; format: ADME, organism-based; parameters: dose 30 mg/kg, route oral; scale not given: the % may be the effect or the level left; conditions: in vivo
Cynomolgus monkey [33] = assay: Volume of distribution at steady state in cynomolgus monkey at 30 mg/kg, po by LC/MS/MS analysis; format: ADME, organism-based, Macaca fascicularis; parameters: dose 30 mg/kg, route oral; conditions: in vivo
[34] = AUC (0 to infinity) in cynomolgus monkey at 30 mg/kg, po by LC/MS/MS analysis; format: ADME, organism-based, Macaca fascicularis; parameters: dose 30 mg/kg, route oral, time infinity; conditions: plasma
Canis familiaris [35] = assay: Cardiotoxicity in Beagle dog assessed as increase in heart rate at 500 mg/kg, po administered as single dose after 24 hrs by electrocardiogram analysis; format: toxicity, organism-based, Canis lupus familiaris; parameters: dose 500 mg/kg, route oral; conditions: in vivo
[36] = Tmax in cynomolgus monkey at 30 mg/kg, po by LC/MS/MS analysis; format: ADME, organism-based, Macaca fascicularis; parameters: dose 30 mg/kg, route oral; conditions: in vivo
Rattus norvegicus [37] = assay: Volume of distribution at steady state in Sprague-Dawley rat at 10 mg/kg, po by LC/MS/MS analysis; format: ADME, organism-based; parameters: dose 10 mg/kg, route oral; conditions: in vivo
Mus musculus [38] = assay: Immunomodulatory activity in mouse assessed as induction of lymphopenia at 30 to 100 mg/kg, po administered as single dose measured after 18 hrs; format: functional; conditions: dose mg/kg 30-100

- Cmax [1]: 3 µM
- bioavailability [2]: 6.8%
- Vd [4]: 0.9 L/kg
- AUC(0-inf) [5]: 19 µM·h
- AUC(0-inf) [6]: 8.8 µM·h
- clearance [8]: 10.2 mL/min/kg
- bioavailability [9]: 16.4%
- AUC(0-inf) [10]: 323 µM·h
- bioavailability [12]: 26%
- Cmax [14]: 79.5 µM
- clearance [15]: 3.5 mL/min/kg
- clearance [17]: 7.6 mL/min/kg
- Tmax [18]: 2 h
- Cmax [19]: 3.6 µM
- Cmax [20]: 16.9 µM
- Tmax [22]: 2 h
- Tmax [23]: 0.45 h
- half-life [24]: 1.6 h
- Tmax [25]: 2 h
- bioavailability [26]: 32.1%
- Cmax [27]: 2.7 µM
- Vdss (Canis familiaris [29]): 0.3 L/kg
- AUC(0-inf) [30]: 18.7 µM·h
- clearance [31]: 4.8 mL/min/kg
- Activity (Mus musculus [32]): -60%
- Vdss (Cynomolgus monkey [33]): 0.5 L/kg
- AUC(0-inf) [34]: 70.1 µM·h
- Tmax [36]: 2.3 h
- Vdss (Rattus norvegicus [37]): 0.6 L/kg
SMILES: C/C(=N\O)c1nc([C@@H](O)[C@H](O)[C@H](O)CO)c[nH]1.Cl
- Activity (Homo sapiens [3]): 50%
- fold change (FC) (Rattus norvegicus [7]): 45
- Activity (Homo sapiens [11]): Non-toxic
- fold change (FC) (Rattus norvegicus [13]): 24
- Activity (Mus musculus [16]): 40%
- Activity (Cynomolgus monkey [21]): Non-toxic
- fold change (FC) (Rattus norvegicus [28]): 80
- Activity (Canis familiaris [35]): Non-toxic
- Activity (Mus musculus [38]): 40%
